These results are taken from publication PMC6273431, “The Structure–Antimicrobial Activity Relationships of a Promising Class of the Compounds Containing the N-Arylpiperazine Scaffold” (Molecules, 2016).

Series [1] concerns Candida parapsilosis CCM 8260. Briefly: candidacidal MIC, microdilution method. It counts as cell-based. The conditions noted are these: Lodderomyces parapsilosis, CCM8260, 48 h, 37 °C. Background: In broth dilution the organism is exposed to a series of concentrations in liquid medium.
The test system of series [2] is Candida krusei CCM 8271. Briefly: candidacidal MIC, microdilution method. The series is classed as cell-based. The following applies: Pichia kudriavzevii, CCM8271, 48 h, 37 °C.
Series [3] has as its system Candida albicans CCM 8261. Briefly: candidacidal MIC, microdilution method. It counts as cell-based. The conditions noted are these: Candida albicans, CCM8261, 48 h, 37 °C.
Series [4] relates to Mycobacterium avium subsp. paratuberculosis CIT03. Briefly: antimycobacterial MIC, MB broth, alamarBlue. The series is classed as cell-based. The conditions noted are these: 264 h, read-out: MIC MAP. In outline: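 Strain grown in Middlebrook broth with OADC and mycobactin J (2 μg/mL), inoculum from McFarland No. 1 diluted 1:20. Compounds at final 1000-60 μg/mL in triplicate, 11 days at 37 °C, then alamarBlue for 24 h; MIC is lowest concentration preventing blue-to-pink change.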
A general note: Alamar Blue is a resazurin reagent that responds to reducing activity.

The subject of series [5] is M. kansasii DSM 44162. Briefly: antimycobacterial MIC, broth dilution micromethod. The series is classed as cell-based. The following applies: Mycobacterium kansasii, DSM44162, 168 h, 7 days at 37 °C.
Series [6] has as its system M. smegmatis ATCC 700084. Briefly: antimycobacterial MIC, broth dilution micromethod. The conditions noted are these: Mycolicibacterium smegmatis, ATCC700084, 72 h, 3 days at 37 °C. It counts as cell-based.
On the set-up of series [7]: method as in PMID 16209439, PMID 16209439. The following applies: potentiometric titration; cited from earlier work.
Details of series [8]: method as in PMID 16209439, PMID 16209439, doi:10.2478/s11696-006-0007-y. The following applies: octan-1-ol/phosphate buffer (pH = 7.4); cited from earlier work.
In series [9] the test system is M. marinum CAMP 5644. Briefly: antimycobacterial MIC, broth dilution micromethod. The series is classed as cell-based. The following applies: Mycobacterium marinum, CAMP5644, 504 h, 21 days at 28 °C.
Series [10] deals with Escherichia coli ATCC 25922. Briefly: antibacterial MIC, microtitration broth method. The series is classed as cell-based. The conditions noted are these: 37 °C.
The subject of series [11] is methicillin-resistant Staphylococcus aureus 63718. Briefly: antibacterial MIC, microtitration broth method. It counts as cell-based. The following applies: MRSA, 37 °C.
In series [12] the test system is Staphylococcus aureus ATCC 29213. Briefly: antibacterial MIC, microtitration broth method. It counts as cell-based. The conditions noted are these: 37 °C.
Series [13] has as its system Enterococcus faecalis ATCC 29212. Briefly: antibacterial MIC, microtitration broth method. It counts as cell-based. The conditions noted are these: 37 °C.

Like-named read-outs stand apart in the source and are kept apart here.

As for `COc1ccc(NC(=O)OCC(O)CN2CCN(c3ccc(F)cc3)CC2)cc1` (stereo not drawn) [Compound 5k], the MIC in series [1] was more than 291 µM; in series [1] (Table S4), more than 128 µg/mL; in series [2] it was more than 291 µM; in series [2] (Table S4) it was more than 128 µg/mL; in series [3], more than 291 µM; in [3] (Table S4), more than 128 µg/mL. Further, the MIC in [4] (37 °C, 11 days) came to 2270 µM; in [4] it was 1000 µg/mL; in series [5], 291 µM; in series [5] (Table S3), 128 µg/mL; in series [6], 582 µM; in series [6] (Table S3), 256 µg/mL. The MIC in series [9] was 582 µM; in [9] (Table S3), 256 µg/mL; in series [10] (ATCC25922, 24 h) it was more than 582 µM; in [10] (ATCC25922, Table S4, 24 h) it was more than 256 µg/mL; in [11] (24 h), more than 582 µM; in series [11] (Table S4, 24 h), more than 256 µg/mL. Moreover, the minimum inhibitory concentration (MIC) in series [12] (ATCC29213, 24 h) was more than 582 µM; in series [12] (ATCC29213, Table S4, 24 h), more than 256 µg/mL; in series [13] (ATCC29212, 24 h), more than 582 µM; in series [13] (ATCC29212, Table S4, 24 h), more than 256 µg/mL. For the same molecule, the pKa in [7] is reported as 7.24. In addition, in series [8], the “log Pexp” value is 3.42.
Turning to `CCOc1ccc(NC(=O)OCC(O)CN2CCN(c3ccc(F)cc3)CC2)cc1` (stereo not drawn) [Compound 5l], the MIC is more than 282 µM in [1]; more than 128 µg/mL in series [1] (Table S4); more than 282 µM in series [2]; more than 128 µg/mL in series [2] (Table S4); more than 282 µM in series [3]; more than 128 µg/mL in series [3] (Table S4). Besides, the MIC turned out to be 2200 µM in [4] (37 °C, 11 days); 1000 µg/mL in [4]; 564 µM in series [5]; 256 µg/mL in series [5] (Table S3); 564 µM in series [6]; 256 µg/mL in series [6] (Table S3). Also, the MIC was 282 µM in series [9]; 128 µg/mL in [9] (Table S3); more than 564 µM in [10] (ATCC25922, 24 h); more than 256 µg/mL in series [10] (ATCC25922, Table S4, 24 h); more than 564 µM in series [11] (24 h); more than 256 µg/mL in [11] (Table S4, 24 h). For the same molecule, the MIC is more than 564 µM in series [12] (ATCC29213, 24 h); more than 256 µg/mL in series [12] (ATCC29213, Table S4, 24 h); more than 564 µM in series [13] (ATCC29212, 24 h); more than 256 µg/mL in [13] (ATCC29212, Table S4, 24 h). Further, the pKa in series [7] is 7.18. Also, the “log Pexp” value in [8] was 3.28.

The term MIC denotes the lowest concentration that inhibits growth of the organism. Usually pKa stands for the negative logarithm of the acid dissociation constant.
